Patent publication US5663298A, “UCK14 compounds” (Kyowa Hakko Kogyo Co., Ltd., priority 1995, dated 1997)

Columns and labels:
[1] = Solubility (physicochemical properties); conditions: qualitative, in various solvents
Text: The physicochemical properties of UCK14 compounds are shown below.

[2] = tested on: human pancreatic carcinoma PSN-1 cells; assay: Growth inhibition against human pancreatic carcinoma PSN-1 cells (MTT); format: cell-based; conditions: 72 hours culture, read-out: IC50 (50% growth inhibitory concentration) PSN-1
Text: (§1) Growth inhibition against human epidermoid carcinoma A431 cells and human pancreatic carcinoma PSN-1 cells
(§2) Human epidermoid carcinoma A431 cells (ATCC CRL 1555) were suspended in Dulbecco's modified Eagle's medium (Nissui Pharmaceutical Co., Ltd.) supplemented with 10% fetal bovine serum (Filtron), and human pancreatic carcinoma PSN-1 cells [Biochem. Biophys. Res. Commun. 140, 167 (1986)] were suspended in RPMI-1640 medium (Gibco BRL) supplemented with 5% fetal bovine serum (Filtron). Each cell suspension was put into wells of a 96-well microtiter plate (#167008, Nunc) in an amount of 3×10^3 cells/well, followed by preincubation in a 5% CO2 -incubator at 37° C. for 24 hours. Then, 5mM solutions of UCK14A1, UCK14A2 and UCK14C were diluted stepwise and the resulting solutions were respectively added to the wells in an amount of 50 μl/well (highest final concentration: 1 mM). The cells were cultured in the 5% CO2 -incubator at 37° C. for 72 hours. Five hours before the end of culturing, 50 μl of a solution of MTT [3-(4,5-dimethylthiazo-2-yl)-2,5-diphenyltetrazolium bromide (Sigma Chemical Co., Ltd.)] in the medium (final concentration: 1 mg/ml) was added to each well. After the completion of culturing, DMSO was added to the wells in an amount of 150 μl/well, followed by vigorous stirring with a plate mixer to completely dissolve crystals of MTT-formazan. […]

[3] = tested on: human epidermoid carcinoma A431 cells; assay: Growth inhibition against human epidermoid carcinoma A431 cells (MTT); format: cell-based; conditions: 72 hours culture, read-out: IC50 (50% growth inhibitory concentration) A431
Text: as §1, §2

SMILES: CCC(C)C1C(=O)OC1C(=O)NC1CC1CC(NC(=O)C(C)N)C(=O)O (stereo not drawn) [UCK14A1]
- Solubility [1]: Soluble in water, methanol and dimethylsulfoxide (DMSO); insoluble in hexane, chloroform and ethyl acetate
- IC50 [2]: 16.1 µM
- IC50 [3]: 25.2 µM
